According to patent US20250017964A1, “ENGINEERING OR INDUCING PDGF AND/OR PDGFR SIGNALING TO ENHANCE NK CELL THERAPY” (City of Hope, priority 2021, published 2025):

Tested on: NK cells
Assay: Annexin V and Ki67 staining of NK cells in vitro
Assay type: cell-based, human
Conditions: PDGF-D 50 ng/ml 48 h without IL-15
Description: FIGS. 4A-4J. PDGFRβ promotes IL-15-mediated NK cell survival in vitro and in vivo. (A) 5×10^5 sorted PDGFRβ^+ (Pos) and PDGFRβ^− (Neg) NK cells were cultured in vitro for 7 days in the presence of IL-15 (10 ng/ml). The cells were counted via trypan blue exclusion assay on days 3, 5, and 7 (n=5). (B and C) On day 7, Ki67 levels in PDGFRβ^+ and PDGFRβ^− NK cells were determined by flow cytometry (n=5). (D and E) Annexin V levels in PDGFRβ^+ and PDGFRβ^− NK cells on day 7 were determined by flow cytometry (n=5). (H-J) 1×10^7 sorted PDGFRβ^+ or PDGFRβ^− IL-15-transduced NK cells were injected into NOD/SCID/IL-2rg (NSG) mice. Blood samples were collected for analysis at the indicated time after adoptive transfer. Data shown are representative dot plots on day 9 after adoptive transfer (H), percentages (I), and absolute numbers (J) of PDGFRβ^+ and PDGFRβ^− NK cells on days 3, 6, and 9 after adoptive transfer (n=5). Data represent three independent experiments. […]
FIGS. 6A-6M. […] Cells were counted on days 3, 5, and 7 (n=3). […] Cells were counted on days 3, 5, and 7 (n=3). […] The cells were counted by trypan exclusion assay on days 3, 5, and 7 (n=3). […] Cells were counted by trypan exclusion assay on days 3, 5, and 7 (n=3). […] Cells were counted by trypan exclusion assay on days 3, 5, and 7 (n=3). […] Cell apoptosis and proliferation were analyzed by annexin V staining (J) and Ki-67 staining (K), respectively. […]

## PDGF-D: recombinant human PDGF-DD (1159-SB-025), R&D Systems
IL-15-pretreated sorted cells
  apoptosis of PDGFRβ^+ NK cells (annexin V): inhibited apoptosis
  NK cell proliferation (Ki67): did not affect NK cell proliferation
